From PubChem BioAssay AID256 (DTP/NCI, 2004)
Values joined by “and” are separate entries in the source; they are usually repeats but may differ in a detail not shown here. Identical values can stand only once. Inconclusive results and toxic doses are left out. Rule for the calls: active = survival T/C of 150% or more; inactive = T/C below 125% in these data. Residues, ends and D or L forms follow the SMILES beside them. *: point of attachment. Octanoyl = CCCCCCCC(=O)*

System: CD2F1 mice, L1210 leukemia ip, survival T/C
Test: NCI In Vivo Anticancer Drug Screen. Data for tumor model L1210 Leukemia (intraperitoneal) in CD2F1 (CDF1) mice
Details: higher = longer survival
Procedure, shortened: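 Implant tumor; dose compound or vehicle; measure endpoint in both groups; report treated divided by control.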

[1] = endpoint: mean survival time, dose: 100.0 mg/kg/injection, schedule: Q01DX001 (ip), vehicle: saline with Tween-80
[2] = endpoint: mean survival time, dose: 100.0 mg/kg/injection, schedule: Q04DX002 (ip), vehicle: saline with Tween-80
[3] = endpoint: mean survival time, dose: 100.0 mg/kg/injection, schedule: Q04DX003 (ip), vehicle: saline with Tween-80
[4] = endpoint: mean survival time, dose: 200.0 mg/kg/injection, schedule: Q01DX001 (ip), vehicle: saline with Tween-80
[5] = endpoint: mean survival time, dose: 200.0 mg/kg/injection, schedule: Q01DX009 (ip), vehicle: saline with Tween-80
[6] = endpoint: mean survival time, dose: 200.0 mg/kg/injection, schedule: Q04DX002 (ip), vehicle: saline with Tween-80
[7] = endpoint: mean survival time, dose: 200.0 mg/kg/injection, schedule: Q04DX003 (ip), vehicle: saline with Tween-80
[8] = endpoint: mean survival time, dose: 400.0 mg/kg/injection, schedule: Q01DX001 (ip), vehicle: saline with Tween-80
[9] = endpoint: mean survival time, dose: 400.0 mg/kg/injection, schedule: Q01DX009 (ip), vehicle: saline with Tween-80
[10] = endpoint: mean survival time, dose: 400.0 mg/kg/injection, schedule: Q04DX002 (ip), vehicle: saline with Tween-80
[11] = endpoint: mean survival time, dose: 400.0 mg/kg/injection, schedule: Q04DX003 (ip), vehicle: saline with Tween-80
[12] = endpoint: mean survival time, dose: 100.0 mg/kg/injection, schedule: Q01DX009 (ip), vehicle: saline with Tween-80

Measured: T/C

COc1cc([N+](=O)[O-])ccc1NC(=O)Nc1nccs1
inactive: endpoint: mean survival time, dose: 50.0 mg/kg/injection, schedule: Q01DX009 (ip), vehicle: saline with Tween-80 96 % of control and 97 % of control | [1] 97 % of control | [2] 87 % of control | [3] 98 % of control | [4] 92 % of control | [5] 95 % of control and 100 % of control and 104 % of control | [6] 95 % of control | [7] 95 % of control | [8] 100 % of control | [9] 97 % of control | [10] 102 % of control | [11] 101 % of control

O=CC12C=CC(CC1)C1C(=O)OC(=O)C12 (stereo unspecified)
inactive: [1] 104 % of control | [4] 103 % of control | [8] 101 % of control

N#Cc1nc(N)nc2c1ncn2C1OC(CO)C(O)C1O (stereo unspecified)
inactive: endpoint: median survival time, dose: 8.75 mg/kg/injection, schedule: Q01DX005 (ip), vehicle: distilled water + Tween-80 100 % of control | endpoint: median survival time, dose: 17.5 mg/kg/injection, schedule: Q01DX005 (ip), vehicle: distilled water + Tween-80 107 % of control | endpoint: median survival time, dose: 35.0 mg/kg/injection, schedule: Q01DX005 (ip), vehicle: distilled water + Tween-80 100 % of control | endpoint: median survival time, dose: 70.0 mg/kg/injection, schedule: Q01DX005 (ip), vehicle: distilled water + Tween-80 100 % of control | endpoint: median survival time, dose: 140.0 mg/kg/injection, schedule: Q01DX005 (ip), vehicle: distilled water + Tween-80 101 % of control

CCCCCCCC(=O)NCC(=O)NCC(=O)O (Octanoyl-Gly-Gly-OH)
inactive: endpoint: mean survival time, dose: 6.25 mg/kg/injection, schedule: Q01DX001 (ip), vehicle: Klucel (hydroxypropylcellulose) (HPC) 97 % of control | endpoint: mean survival time, dose: 12.5 mg/kg/injection, schedule: Q01DX001 (ip), vehicle: Klucel (hydroxypropylcellulose) (HPC) 95 % of control | endpoint: mean survival time, dose: 25.0 mg/kg/injection, schedule: Q01DX001 (ip), vehicle: Klucel (hydroxypropylcellulose) (HPC) 100 % of control | endpoint: mean survival time, dose: 50.0 mg/kg/injection, schedule: Q01DX001 (ip), vehicle: Klucel (hydroxypropylcellulose) (HPC) 93 % of control

COc1ccc(-c2cc(C(=O)N/N=C/c3ccc([N+](=O)[O-])cc3)c3ccc(C)cc3n2)cc1OC
inactive: [12] 93 % of control | [5] 106 % of control | [9] 108 % of control

Cc1ccc(Sc2ccc([N+](=O)[O-])cc2)cc1
inactive: [12] 96 % of control | [3] 100 % of control | [5] 102 % of control | [7] 100 % of control | [9] 96 % of control | [11] 91 % of control

CCCCCCCCCCCCCCCCCCCCCC(CC)CC
inactive: [1] 101 % of control | [4] 107 % of control | [8] 103 % of control

C=CCON
inactive: endpoint: mean survival time, dose: 75.0 mg/kg/injection, schedule: Q01DX001 (ip), vehicle: saline 100 % of control

COC(=O)c1ccn2c1CCC2
inactive: endpoint: mean survival time, dose: 25.0 mg/kg/injection, schedule: Q01DX009 (ip), vehicle: Klucel (hydroxypropylcellulose) (HPC) 92 % of control | endpoint: mean survival time, dose: 50.0 mg/kg/injection, schedule: Q01DX009 (ip), vehicle: Klucel (hydroxypropylcellulose) (HPC) 87 % of control | endpoint: mean survival time, dose: 100.0 mg/kg/injection, schedule: Q01DX009 (ip), vehicle: Klucel (hydroxypropylcellulose) (HPC) 91 % of control | endpoint: mean survival time, dose: 200.0 mg/kg/injection, schedule: Q01DX009 (ip), vehicle: Klucel (hydroxypropylcellulose) (HPC) 97 % of control | endpoint: mean survival time, dose: 400.0 mg/kg/injection, schedule: Q01DX009 (ip), vehicle: Klucel (hydroxypropylcellulose) (HPC) 87 % of control

C(=NC1CCCCC1)c1c[nH]c2ccccc12
inactive: [12] 87 % of control | [3] 91 % of control | [5] 89 % of control | [7] 91 % of control | [11] 98 % of control

O=C1C2CCCC1C1/C(=[N+](/[O-])O)C=C([N+](=O)[O-])C2C1[N+](=O)[O-] (stereo unspecified)
inactive: [2] 98 % of control | [6] 98 % of control | [10] 110 % of control

COc1ccc(N=C(C(=O)c2ccccc2)c2ccccc2)cc1
inactive: [1] 95 % of control | [4] 93 % of control | [8] 100 % of control

O=c1[nH]cnc2snc(Cl)c12
inactive: [1] 101 % of control | [2] 92 % of control | [4] 101 % of control | [6] 92 % of control | [8] 100 % of control | [10] 87 % of control

[Cl][Pt+2][Cl].[NH-]Cc1ccccc1C[NH-]
inactive: endpoint: mean survival time, dose: 3.13 mg/kg/injection, schedule: Q04DX003 (ip), vehicle: dextrose 114 % of control | endpoint: mean survival time, dose: 6.25 mg/kg/injection, schedule: Q04DX003 (ip), vehicle: dextrose 116 % of control | endpoint: mean survival time, dose: 12.5 mg/kg/injection, schedule: Q04DX003 (ip), vehicle: dextrose 124 % of control | endpoint: mean survival time, dose: 25.0 mg/kg/injection, schedule: Q04DX003 (ip), vehicle: dextrose 114 % of control | endpoint: mean survival time, dose: 50.0 mg/kg/injection, schedule: Q04DX003 (ip), vehicle: dextrose 86 % of control

O=C(O)CC(c1ccccc1)C(CC(=O)O)c1ccccc1.[NH-]C1CCCCC1[NH-].[Pt+2] (stereo unspecified)
inactive: endpoint: median survival time, dose: 3.12 mg/kg/injection, schedule: Q04DX003 (ip), vehicle: saline with Tween-80 107 % of control | endpoint: median survival time, dose: 3.12 mg/kg/injection, schedule: Q04DX003 (ip), vehicle: saline 105 % of control | endpoint: median survival time, dose: 6.25 mg/kg/injection, schedule: Q04DX003 (ip), vehicle: saline with Tween-80 111 % of control | endpoint: median survival time, dose: 6.25 mg/kg/injection, schedule: Q04DX003 (ip), vehicle: saline 102 % of control | endpoint: median survival time, dose: 12.5 mg/kg/injection, schedule: Q04DX003 (ip), vehicle: saline with Tween-80 102 % of control | endpoint: median survival time, dose: 12.5 mg/kg/injection, schedule: Q04DX003 (ip), vehicle: saline 103 % of control | endpoint: median survival time, dose: 25.0 mg/kg/injection, schedule: Q04DX003 (ip), vehicle: saline with Tween-80 111 % of control | endpoint: median survival time, dose: 25.0 mg/kg/injection, schedule: Q04DX003 (ip), vehicle: saline 110 % of control | endpoint: median survival time, dose: 50.0 mg/kg/injection, schedule: Q04DX003 (ip), vehicle: saline with Tween-80 123 % of control | endpoint: median survival time, dose: 50.0 mg/kg/injection, schedule: Q04DX003 (ip), vehicle: saline 110 % of control | endpoint: median survival time, dose: 100.0 mg/kg/injection, schedule: Q04DX003 (ip), vehicle: saline 121 % of control

CCCCS(=O)(=O)CC(O)c1ccccc1 (stereo unspecified)
inactive: [2] 115 % of control | [6] 101 % of control | [10] 104 % of control

CC1CCC2(OC1)OC1CC3C4CCC5(C)CC(=O)CCC5(C)C4CCC3(C)C1C2C (stereo unspecified)
inactive: [2] 90 % of control | [6] 86 % of control

CC(C)/C(=N\Nc1ccc([N+](=O)[O-])cc1[N+](=O)[O-])c1ccccc1
inactive: [12] 97 % of control | [5] 101 % of control | [9] 103 % of control

CC(=O)OCC1OC(n2ncc3c(N4CC4)ncnc32)C(OC(C)=O)C1OC(C)=O (stereo unspecified)
inactive: endpoint: mean survival time, dose: 25.0 mg/kg/injection, schedule: Q01DX005 (ip), vehicle: distilled water + Tween-80 97 % of control | endpoint: mean survival time, dose: 50.0 mg/kg/injection, schedule: Q01DX005 (ip), vehicle: distilled water + Tween-80 99 % of control | endpoint: mean survival time, dose: 100.0 mg/kg/injection, schedule: Q01DX005 (ip), vehicle: distilled water + Tween-80 101 % of control | endpoint: mean survival time, dose: 200.0 mg/kg/injection, schedule: Q01DX005 (ip), vehicle: distilled water + Tween-80 100 % of control | endpoint: mean survival time, dose: 400.0 mg/kg/injection, schedule: Q01DX005 (ip), vehicle: distilled water + Tween-80 97 % of control

O=C1OCCC1C(=O)C(O)(C(F)(F)F)C(F)(F)F (stereo unspecified)
inactive: endpoint: mean survival time, dose: 100.0 mg/kg/injection, schedule: Q04DX003 (ip), vehicle: other 113 % of control | endpoint: mean survival time, dose: 200.0 mg/kg/injection, schedule: Q04DX003 (ip), vehicle: other 87 % of control | endpoint: mean survival time, dose: 400.0 mg/kg/injection, schedule: Q04DX003 (ip), vehicle: other 107 % of control
